# PubChem BioAssay AID651897 (Broad Institute, 2012)
# Molecular target: cruzain (cruzipain), Trypanosoma cruzi
# Test: inhibition of T. cruzi cysteine protease cruzain – biochemical, dry powder, dose response (AID 651897)
# Conditions: purified recombinant cruzain, Z-Phe-Arg-AMC fluorescence
structure (smiles),measurement,value
C[C@H]1CN([C@@H](C)CO)C(=O)c2cccc(NC(=O)c3ccncc3)c2O[C@@H]1CN(C)Cc1ccc(Oc2ccccc2)cc1,IC50,13.2 µM
